Assay results: ChEMBL document CHEMBL1145902, “Design and synthesis of a potent and selective triazolone-based peroxisome proliferator-activated receptor alpha agonist” (J Med Chem, 2003)
Activity calls are given as the source filed them. No cut-off for these calls is given here.

Key:
Mus musculus [1] = organism: Mus musculus; assay: animal or person; assay type: functional
Mus musculus [2] = organism: Mus musculus; assay: animal or person; assay type: functional; conditions: Serum
Mus musculus [3] = organism: Mus musculus; assay type: functional
[4] = target: T1, Peroxisome proliferator-activated receptor delta (Homo sapiens, UniProt Q03181)
T1 sequence (Q03181 whole entry): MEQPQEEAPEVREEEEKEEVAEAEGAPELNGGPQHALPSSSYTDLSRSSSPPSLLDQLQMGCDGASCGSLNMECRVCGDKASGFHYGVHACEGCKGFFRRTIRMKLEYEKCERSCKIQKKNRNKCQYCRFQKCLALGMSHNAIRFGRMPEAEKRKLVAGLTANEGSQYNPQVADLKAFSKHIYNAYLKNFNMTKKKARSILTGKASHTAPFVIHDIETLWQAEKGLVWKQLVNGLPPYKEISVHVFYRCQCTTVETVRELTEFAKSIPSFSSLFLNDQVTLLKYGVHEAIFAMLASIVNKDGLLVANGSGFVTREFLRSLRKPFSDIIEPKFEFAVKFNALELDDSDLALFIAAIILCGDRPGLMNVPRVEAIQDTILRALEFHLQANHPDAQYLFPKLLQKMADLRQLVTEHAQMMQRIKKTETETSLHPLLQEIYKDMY

[5] = target: T2, Peroxisome proliferator-activated receptor alpha (Homo sapiens, UniProt Q07869); assay type: functional
T2 sequence (Q07869 whole entry): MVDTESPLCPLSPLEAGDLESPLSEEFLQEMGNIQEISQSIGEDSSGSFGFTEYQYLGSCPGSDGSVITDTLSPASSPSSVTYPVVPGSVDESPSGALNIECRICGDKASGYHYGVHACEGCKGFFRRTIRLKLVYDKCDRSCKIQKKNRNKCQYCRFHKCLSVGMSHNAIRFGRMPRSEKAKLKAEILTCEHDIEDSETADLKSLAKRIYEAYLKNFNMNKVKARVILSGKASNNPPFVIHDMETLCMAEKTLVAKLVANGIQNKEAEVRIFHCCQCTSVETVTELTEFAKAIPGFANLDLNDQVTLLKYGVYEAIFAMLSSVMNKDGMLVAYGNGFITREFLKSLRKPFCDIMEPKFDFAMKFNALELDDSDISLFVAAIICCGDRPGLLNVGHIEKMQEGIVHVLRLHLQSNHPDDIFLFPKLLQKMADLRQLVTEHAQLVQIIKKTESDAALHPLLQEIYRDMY

[6] = target: T2, Peroxisome proliferator-activated receptor alpha
Mus musculus [7] = organism: Mus musculus; assay: animal or person; assay type: functional; remark: listed apart in the source
[8] = target: T3, Peroxisome proliferator-activated receptor gamma (Homo sapiens, UniProt P37231); assay type: functional
T3 sequence (P37231 whole entry): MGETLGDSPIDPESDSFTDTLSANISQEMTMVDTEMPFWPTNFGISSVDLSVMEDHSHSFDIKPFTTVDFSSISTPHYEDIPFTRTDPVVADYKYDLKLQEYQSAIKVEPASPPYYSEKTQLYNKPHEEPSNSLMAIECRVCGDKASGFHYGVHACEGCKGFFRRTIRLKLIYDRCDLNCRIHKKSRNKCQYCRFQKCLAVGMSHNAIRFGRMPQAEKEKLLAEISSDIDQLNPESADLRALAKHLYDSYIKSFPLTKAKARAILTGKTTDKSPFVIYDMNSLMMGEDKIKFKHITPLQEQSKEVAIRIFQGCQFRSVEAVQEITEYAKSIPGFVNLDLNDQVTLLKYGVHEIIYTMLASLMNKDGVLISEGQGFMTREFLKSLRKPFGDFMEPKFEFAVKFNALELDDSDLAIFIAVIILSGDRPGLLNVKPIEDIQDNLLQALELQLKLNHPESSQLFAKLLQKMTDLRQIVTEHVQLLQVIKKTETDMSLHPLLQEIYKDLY

[9] = target: T4, Peroxisome proliferator-activated receptor delta (Homo sapiens) (UniProt Q03181)
T4 sequence (whole entry): T1 sequence (Q03181 whole entry)

[10] = target: T2, Peroxisome proliferator-activated receptor alpha; assay type: functional; remark: listed apart in the source
[11] = target: T5, Peroxisome proliferator-activated receptor gamma (Homo sapiens) (UniProt P37231)
T5 sequence (whole entry): T3 sequence (P37231 whole entry)

[12] = target: T4, Peroxisome proliferator-activated receptor delta (Homo sapiens); remark: listed apart in the source

| SMILES | IC50 [4] | EC50 [5] | IC50 [6] | further results |
| --- | --- | --- | --- | --- |
| CC(C)OC(=O)C(C)(C)Oc1ccc(C(=O)c2ccc(Cl)cc2)cc1 [FENOFIBRATE] |  |  |  | ED50 (Mus musculus [1]): 110 mg/kg; ED50 (Mus musculus [2]): 79 mg/kg; Increase (Mus musculus [3]): 120% |
| CCCn1c(CCCc2ccc(OC(C)(C)C(=O)O)cc2)nn(C(C)c2ccccc2)c1=O (configuration not stated) | 1500 nM | 220 nM | 220 nM |  |
| CCCn1c(CCc2ccc(OC(C)(C)C(=O)O)cc2)nn(Cc2ccc(C)cc2)c1=O |  | 2800 nM |  | EC50 [8]: 2900 nM |
| Cc1ccc(Cn2nc(CCCc3ccc(OC(C)(C)C(=O)O)cc3)n(CCO)c2=O)cc1 | 4100 nM | 88 nM | 27 nM |  |
| CCCCCCn1c(CCc2ccc(OC(C)(C)C(=O)O)cc2)nn(Cc2cccc(OC)c2)c1=O |  | 2200 nM |  | EC50 [8]: 2600 nM |
| CCCn1c(CCCc2ccc(OC(C)(C)C(=O)O)cc2)nn(Cc2cccc(OC)c2)c1=O | 2000 nM | 31 nM | 19 nM |  |

Continued, in another order:

| IC50 [4] | EC50 [5] | IC50 [6] | SMILES | further results |
| --- | --- | --- | --- | --- |
| 3800 nM |  |  | Cc1ccc(Cn2nc(CCCc3ccc(OC(C)(C)C(=O)O)cc3)nc2O)cc1 [LY-518674] | ED50 (Mus musculus [1]): 0.3 mg/kg; ED50 (Mus musculus [7]): 0.1 mg/kg; Increase (Mus musculus [3]): 210% |
|  | 2700 nM | 960 nM | Cc1ccc(Cn2nc(CCCc3ccc(OC(C)(C)C(=O)O)cc3)n(CC(=O)O)c2=O)cc1 | NB [9]: inactive |
|  |  | 24000 nM | CC(C)(Oc1ccc(C(=O)c2ccc(Cl)cc2)cc1)C(=O)O [FENOFIBRIC ACID] | EC50 [10]: 13000 nM; NB [11]: inactive; NB [12]: inactive |
